The record followed here is patent publication US5439899A, “Cosalane and related compounds having activity against aids and aids-related infections” (priority 1993, dated 1995).

Where “and” joins values, the source holds several entries; their conditions need not be identical. Equal entries are not always repeated. Entries after “also recorded” stand apart in the source; their conditions may differ. Where two headings read alike, the source gives them in different places. Bounds are passed on as bounds.

For one test, the system named is HIV-1 p24. The test is described as follows: p24 antigen-capture assay. Type of test: cell-based. As to conditions: in vitro. On the procedure:
(§1) Activity was also examined by determination of p24 and reverse transcriptase concentrations.
To determine p24, a p24 antigen-capture assay was used. Culture fluids harvested from drug test plates or other sources were diluted 1:100 in 10% triton X-100 and stored frozen at -70° C. 200 μL aliquots of the triton treated samples were added in duplicate to microtiter wells previously coated with rabbit polyclonal anti-HIV-1 p24 serum and incubated at room temperature overnight. After washing and blotting, 100 μL of biotinylated polyclonal anti-HIV p-24 was added to each of the appropriate wells, and the plates were re-incubated at 37° C. for 60 minutes. A solution of streptavidin-horseradish peroxidase was added after additional washing and blotting. The contents of each plate were mixed and reincubated for 15 minutes at room temperature and, after washing and blotting, the o-phenylenediamine dihydrochloride substrate was added in 100 μL aliquots. Color was allowed to develop in the dark room at room temperature for 30 minutes, and the reaction was halted by the addition of 4 N H2 SO4. Optical density was measured at 490 nm, and the concentration of p24 was determined by comparison with a standard curve of known concentrations of p24. Eislow, O., et al., J. Nat'l Cancer Inst., 81 (8):577-86 (1989).

Test [1] relates to HIV. The test is described as follows: in vitro testing for infectious particles. Type of test: cell-based.
Test [2] deals with HIV. Description: NCI in vitro anti-HIV screen (XTT soluble-formazan assay, protection of HIV-infected CEM cells). The test is classed as cell-based. As to conditions: for anti-HIV effect (statement): NCI anti-HIV screen, in vitro, CEM cells; for EC50: approximate values, one value per run; for TI50 (IC/EC), therapeutic index: ratio IC50/EC50 of the same run. The source says:
The National Cancer Institute's procedure for testing for agents active against Human Immunodeficiency Virus (HIV) (Weislow, O. W. et al, "New soluble-formazan assay for HIV-1 cytopathic effects: application to high-flux screening of synthetic and natural products for AIDS-antiviral activity," J. Natl. Cancer Inst., 81, 577-586, 1989) is designed to detect agents acting at any stage of the virus reproductive cycle. The assay includes the killing of T4 lymphocytes by HIV. Pursuant to the test, small amounts of HIV are added to cells, and a complete cycle of virus reproduction is necessary to obtain the required cell killing. Agents that interact with virions, cells, or virus gene-products to interfere with viral activities will protect cells from cytolysis. The system is thus designed to detect anti-HIV activity. However, compounds that degenerate or are rapidly metabolized in the culture conditions may not show activity in this screen. All tests are compared with at least one positive (e.g., AZT-treated) control done at the same time under identical conditions.
(§2) 1. The candidate agent is dissolved in dimethyl sulfoxide (unless otherwise instructed), then diluted 1:200 in cell culture medium. Further dilutions (half-log10) are prepared before adding to 96-well microtiter plates.
(§3) 2. T4 lymphocytes (CEM cell line) are exposed to HIV at a virus-to-cell ratio of approximately 0.05 and are plated along with non-infected control cells into drug-containing wells or wells with medium alone.
(§4) 3. Cultures are incubated at 37° in a 5% carbon dioxide atmosphere for 6 days.
(§5) 4. The tetrazolium salt, XTT, is added to all wells, and cultures are incubated to allow formazan color development by viable cells.
(§6) 5. […] are analyzed spectrophotometrically to quantitate formazan production and, in addition, are viewed microscopically for detection of viable cells and confirmation of protective activity.
(§7) 6. Drug-treated virus-infected cells are compared with drug-treated non-infected cells and with other appropriate controls (untreated infected and untreated non-infected cells, drug-containing wells without cells, etc.) on the same plate.
(§8) 7. Data are reviewed in comparison with other tests performed at the same time, and a determination about activity is made.
Approximate values for 50% effective concentration (EC50) (protection in infected cells), 50% inhibitory concentration (IC50) and the therapeutic index (IC50 /EC50) have been calculated for each test and are provided in the tables of each Example.
Examples 1, 6 and 8 compounds, respectively, against the measured test values expressed as a percentage of the uninfected, untreated control values. The solid line depicts the percentage of surviving HIV-infected cells treated with sample (at the indicated concentration) relative to uninfected, untreated controls. The solid line expresses the in vitro anti-HIV activity of the compound of the tested compound. The dashed line depicts the percentage of surviving uninfected cells treated with the compound of the Example relative to the same uninfected, untreated controls. The dashed line expresses the in vitro growth inhibitory properties of the compound of the Example. The viral cytopathic effect of a compound of each Example is indicated by a combination of dashes and dots. […] Survival values of this parameter less then 50% are considered acceptable in the current protocol.

For the next test, the system named is reverse transcriptase. The test is described as follows: reverse transcriptase assay of cell-free supernatant. As to conditions: in vitro. Type of test: cell-based, HIV. The protocol:
as §1
Reverse transcriptase assays were performed according to the method of Hoffman et al, Virology, 147, 326-335 (1985), with minor modifications. Briefly, 15 µl of cell-free supernatant was mixed with 10 μl of RT reaction buffer. The total 25 μl reaction mixture consisted of 2.5 μCi of tritated thymidine triphosphate (TTP) (ICN, 80 Ci/mmol), poly rA (50 ng/ml):oligo dT (10 ng/ml) template:primer (Pharmacia), 10 mM Tris, pH 7.6, 8 mM magnesium chloride, 10 mM dithiothreitol (DTT), and, in the standard reaction, 0.5% Triton X-100. Assays were performed in the absence of added EGTA unless indicated. When EGTA (Sigma) was added it was at a concentration of 1 mM. The reactions were incubated for 60 minutes at 37° C. The reaction volume was then spotted onto DE81 chromatography paper (Whatman), washed extensively in 5% dibasic sodium phosphate, and counted for incorporated radioactivity in a toluene-based scintillation cocktail. Assays were also performed to measure the presence of a nuclease activity associated with HIV virions. […] The HIV virion sample was added to the AMV RT reaction product and the amount of radioactivity able to bind to DE81 paper was monitored after varying times of incubation at 37° C. […]

Test [3] relates to T4 lymphocytes (CEM cell line). Description: NCI in vitro anti-HIV screen, growth inhibition of uninfected CEM cells (XTT). The note with it: read-out: IC50 (50% inhibitory concentration). The test is classed as cell-based. The protocol: The assay includes the killing of T4 lymphocytes by HIV. Pursuant to the test, small amounts of HIV are added to cells, and a complete cycle of virus reproduction is necessary to obtain the required cell killing. Agents that interact with virions, cells, or virus gene-products to interfere with viral activities will protect cells from cytolysis. The system is thus designed to detect anti-HIV activity. However, compounds that degenerate or are rapidly metabolized in the culture conditions may not show activity in this screen. All tests are compared with at least one positive (e.g., AZT-treated) control done at the same time under identical conditions.
as §2, §3, §4, §5, §6, §7, §8
Survival values of this parameter less then 50% are considered acceptable in the current protocol.

Setting [4] is: Homo sapiens, CCRF-CEM, 144 h, drug-treated uninfected CEM cells, 6 days, XTT, approximate values, one value per run.

Take `CC(C)CCC[C@@H](C)[C@H]1CC[C@H]2[C@@H]3CC[C@H]4C[C@@H](CCC=C(c5cc(Cl)c(O)c(C(=O)O)c5)c5cc(Cl)c(O)c(C(=O)O)c5)CC[C@]4(C)[C@H]3CC[C@]12C` [Formula IV, 1,1-di(3'-ammoniumcarboxy-5'-chloro-4'-hydroxy)phenyl-4-(3β)-cholestanyl-1-butene]: the “p24 (FIG. 3)” value with HIV-1 p24 is “indicating anti-HIV activity”. For the same compound, the “infectious particles (FIG. 2)” value in the test with HIV [1] was “indicating anti-HIV activity”. Further, the “anti-HIV effect (statement)” value with HIV [2] is “greatest effect on inhibiting HIV-infected cells, while having a lesser effect on uninfected cells”; in the test with HIV [2] (listed as Cosalane) it was “highly effective anti-HIV agent in vitro; also recorded: most effective compounds studied in terms of prevention of the cytopathic effect of HIV in CEM lymphocytes”. The EC50 in the test on HIV [2] (read-out: EC50 (50% effective concentration, protection in infected cells), HIV-infected CEM cells, 6 days, XTT) stood at 6.7 µM. Further, the “reverse transcriptase activity (FIG. 4)” value in the test with reverse transcriptase is given as “indicating anti-HIV activity”. The IC50 in test [3] (Homo sapiens, CCRF-CEM, 144 h) was above 310 µM.
For the compound `CCCCCC=C(c1cc(Br)cc(C(=O)O)c1OC)c1cc(Br)cc(C(=O)O)c1OC` [Formula XXI], the EC50 in the test with HIV [2] (HIV-infected CEM cells, 6 days, XTT, read-out: EC50 (50% effective concentration, protection in infected cells)) is 69.3 µM; in the test on HIV [2] (Human immunodeficiency virus 1, CCRF-CEM, 144 h, HIV-infected CEM cells, 6 days, XTT, read-out: EC50 (50% effective concentration, protection in infected cells)), 97.1 µM. For the same compound, in the test on HIV [2], the “TI50 (IC/EC), therapeutic index” value was 1.80 × 10^0 and 3.52 × 10^0. Moreover, the IC50 in test [3] (setting [4]) was determined as 175 µM; in test [3] (drug-treated uninfected CEM cells, 6 days, XTT, approximate values, one value per run), 244 µM.
For `C[C@H](CCC=C(c1cc(Cl)c(O)c(C(=O)O)c1)c1cc(Cl)c(O)c(C(=O)O)c1)[C@H]1CC[C@H]2[C@@H]3CC[C@@H]4CC(F)(F)CC[C@]4(C)[C@H]3CC[C@]12C` [Formula X, (5β)-3,3-difluoro-17-[5,5-di(3-ammoniumcarboxy-5-chloro-4-hydroxy)phenyl-1-methyl-4-pentenyl]androstane], the EC50 with HIV [2] (Human immunodeficiency virus 1, CCRF-CEM, 144 h, read-out: EC50 (50% effective concentration, protection in infected cells), HIV-infected CEM cells, 6 days, XTT) is 24 µM. Further, the “TI50 (IC/EC), therapeutic index” value in the test on HIV [2] is listed as 1.80 × 10^0. The IC50 in test [3] (setting [4]) was found to be 41 µM.
